This is an account of results in patent publication US20150274777A1, “KETOAMIDE IMMUNOPROTEASOME INHIBITORS” (HOFFMANN-LA ROCHE INC., priority 2012, published 2015).

pEC50, pIC50: −log10 of the molar value. Where only a bound is given, the exact number is not on record here.

For one experiment, the target named is T1, β1i (Homo sapiens, UniProt P28065+P40306).
T1 construct: protease activity associated with the proteasome complex in cultured cells; endogenous in cells; host or cells: Ramos cells
Kind of experiment: Cell-Based Proteasome Activity/Selectivity Assay (Ramos cells), substrate (PAL)2Rh110. The conditions noted are these: highest concentration tested 20 μM. The method, boiled down: (§1)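 Ramos cells (5×10^4/well in DPBS) were treated with 4-fold compound dilutions (top 20 μM) for 30 min at 37 °C. A 2× mix of 0.025% digitonin, 20 μM of each Rh110 substrate and 0.5 M sucrose was added, then incubated 120 min at room temperature. Rh110 fluorescence was read at 500/519 nm.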

A further experiment concerns the target T2, β5i (Homo sapiens, UniProt P20618+P28062).
T2 construct: protease activity associated with the proteasome complex in cultured cells; endogenous in cells; host or cells: Ramos cells
Kind of experiment: Cell-Based Proteasome Activity/Selectivity Assay (Ramos cells), substrate (ANW)2Rh110. The conditions noted are these: highest concentration tested 20 μM, read-out: Ic50 ramos:ac-(anw)2-r110. The method, boiled down:
as §1

The target in the next experiment is T3, β5c (Homo sapiens, UniProt P20618+P28074).
T3 construct: protease activity associated with the proteasome complex in cultured cells; endogenous in cells; host or cells: Ramos cells
Kind of experiment: Cell-Based Proteasome Activity/Selectivity Assay (Ramos cells), substrate (WLA)2Rh110. The note with it: highest concentration tested 20 μM. A digest of the protocol: as §1

For another experiment, the system named is β2c/2i. Nature of the experiment: Cell-Based Proteasome Activity/Selectivity Assay (Ramos cells), substrate (KQL)2Rh110. The note with it: highest concentration tested 20 μM. The method, boiled down:
as §1

Experiment [1] concerns IP10 level in PBMCs stimulated with CpG Type A. Kind of experiment: PBMC IP-10 Assay. The class given is cell-based. The note with it: CpG Type A 2.5 μM. The method, boiled down:
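Human PBMCs (~2×10^5/well) preincubated 60 min at 37° C. with titrated compound (1% DMSO final), then stimulated with CpG Type A (ODN 2216) at 2.5 μM final overnight. Supernatant IP-10 quantified by AlphaLISA; viability of remaining cells by ATP luminescence.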

For a further experiment, the target named is T4, β1c (Homo sapiens, UniProt P28072+Q99436).
T4 construct: protease activity associated with the proteasome complex in cultured cells; endogenous in cells; host or cells: Ramos cells
Kind of experiment: Cell-Based Proteasome Activity/Selectivity Assay (Ramos cells), substrate (LLE)2 Rh110. The conditions noted are these: highest concentration tested 20 μM. A digest of the protocol: as §1

For experiment [2], the system named is mouse CAIA and CIA arthritis models. The note with it: cited from earlier work.
Experiment [3] concerns DSS-induced colitis model. The note with it: DSS-induced colitis model in mice; cited from earlier work.
Experiment [4] has as its system MRL/lpr lupus-prone mice model. The note with it: cited from earlier work.

Take `COc1ccc(C[C@H](NC(=O)[C@H](C)NC(=O)C2Cc3ccccc3C2)C(=O)NC2(C(=O)C(=O)NCc3ccccc3)Cc3ccccc3C2)cc1` [Example 59, Indan-2-carboxylic acid {(S)-1-[(S)-1-(2-benzylaminooxalyl-indan-2-ylcarbamoyl)-2-(4-methoxy-phenyl)-ethylcarbamoyl]-ethyl}-amide]: the pIC50 against β1i was less than 4.70; at β5i, 7.05; against β5c, 5.87; in the experiment with β2c/2i, less than 4.70; on β1c, less than 4.70. The molecule further had a pEC50 in [1] of 4.93.
`COc1ccc(C[C@H](NC(=O)[C@H](C)NC(=O)CN2CCOCC2)C(=O)N[C@@H](Cc2ccccc2)C(=O)[C@@]2(C)CO2)cc1` [PR-957]: the disease score entry in experiment [2] is “significantly decreased”. Besides, the “inflammation and tissue destruction” value in experiment [3] is recorded as “reduced”. Further, in [4], the disease progression result is recorded as “prevented”; the “plasma cells numbers and levels of anti-dsDNA IgG” value is “reduced”.

As a reminder, the pIC50 is the IC50 on a negative log10 scale, so that one unit is a factor of ten. As usually defined, the pEC50 is −log10 of the EC50, conventionally taken in molar units.
